In patent US8192962B2, “Processes for detecting toxic substances” (Daikin Industries, Ltd., priority 2001, dated 2012):

Test system: Energy system protein genes
Test: DNA chip mRNA expression in yeast, energy system protein genes (Table 4)
Format: cell-based, Saccharomyces cerevisiae S288C
Method in brief: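 First, S288C yeast grown in YPD at 25° C. are dosed in log phase with one toxicant (growth-inhibiting, not lethal) for 2 h. Next, total RNA is extracted and poly(A) mRNA isolated and reverse-transcribed with Cy3/Cy5-dUTP. Finally, whole-genome chip fluorescence is read relative to unexposed cells.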

N#Cc1c(Cl)c(Cl)c(Cl)c(C#N)c1Cl [(9), 2,4,5,6-tetrachloro-1,3-benzenedicarbonitrile] was tested, and the “The level of expressed mRNA in the presence of chemical substance/The level of expressed mRNA in the absence of chemical substance” value (yeast gene YAL054C) was 8.9, the “The level of expressed mRNA in the presence of chemical substance/The level of expressed mRNA in the absence of chemical substance” value (yeast gene YAL060W) was 0.6 and the “The level of expressed mRNA in the presence of chemical substance/The level of expressed mRNA in the absence of chemical substance” value (yeast gene YBL058W, cells incubated two hours with the chemical substance) was 2.6. The “The level of expressed mRNA in the presence of chemical substance/The level of expressed mRNA in the absence of chemical substance” value (yeast gene YBL099W, cells incubated two hours with the chemical substance) was 0.9, the “The level of expressed mRNA in the presence of chemical substance/The level of expressed mRNA in the absence of chemical substance” value (yeast gene YBR001C, cells incubated two hours with the chemical substance) was 2.3 and the “The level of expressed mRNA in the presence of chemical substance/The level of expressed mRNA in the absence of chemical substance” value (yeast gene YBR185C, cells incubated two hours with the chemical substance) was 0.9. The “The level of expressed mRNA in the presence of chemical substance/The level of expressed mRNA in the absence of chemical substance” value (yeast gene YBR221C, cells incubated two hours with the chemical substance) was 1.0, the “The level of expressed mRNA in the presence of chemical substance/The level of expressed mRNA in the absence of chemical substance” value (yeast gene YBR299W) was 1.1 and the “The level of expressed mRNA in the presence of chemical substance/The level of expressed mRNA in the absence of chemical substance” value (yeast gene YCL040W) was 0.9. For the same molecule, the “The level of expressed mRNA in the presence of chemical substance/The level of expressed mRNA in the absence of chemical substance” value (yeast gene YCR012W) was 1.4, the “The level of expressed mRNA in the presence of chemical substance/The level of expressed mRNA in the absence of chemical substance” value (yeast gene YCR046C, cells incubated two hours with the chemical substance) was 1.9 and the “The level of expressed mRNA in the presence of chemical substance/The level of expressed mRNA in the absence of chemical substance” value (yeast gene YCR105W, cells incubated two hours with the chemical substance) was 2.0. For the same molecule, the “The level of expressed mRNA in the presence of chemical substance/The level of expressed mRNA in the absence of chemical substance” value (yeast gene YDL021W) was 2.5, the “The level of expressed mRNA in the presence of chemical substance/The level of expressed mRNA in the absence of chemical substance” value (yeast gene YDL067C, cells incubated two hours with the chemical substance) was 0.9 and the “The level of expressed mRNA in the presence of chemical substance/The level of expressed mRNA in the absence of chemical substance” value (yeast gene YDL078C, cells incubated two hours with the chemical substance) was 1.1. For the same molecule, the “The level of expressed mRNA in the presence of chemical substance/The level of expressed mRNA in the absence of chemical substance” value (yeast gene YDL107W, cells incubated two hours with the chemical substance) was 1.2, the “The level of expressed mRNA in the presence of chemical substance/The level of expressed mRNA in the absence of chemical substance” value (yeast gene YDL174C) was 0.5 and the “The level of expressed mRNA in the presence of chemical substance/The level of expressed mRNA in the absence of chemical substance” value (yeast gene YDL181W, cells incubated two hours with the chemical substance) was 0.7. The “The level of expressed mRNA in the presence of chemical substance/The level of expressed mRNA in the absence of chemical substance” value (yeast gene YDR001C) was 2.2, the “The level of expressed mRNA in the presence of chemical substance/The level of expressed mRNA in the absence of chemical substance” value (yeast gene YDR050C, cells incubated two hours with the chemical substance) was 0.4 and the “The level of expressed mRNA in the presence of chemical substance/The level of expressed mRNA in the absence of chemical substance” value (yeast gene YDR079W, cells incubated two hours with the chemical substance) was 0.9. The “The level of expressed mRNA in the presence of chemical substance/The level of expressed mRNA in the absence of chemical substance” value (yeast gene YDR178W, cells incubated two hours with the chemical substance) was 0.9, the “The level of expressed mRNA in the presence of chemical substance/The level of expressed mRNA in the absence of chemical substance” value (yeast gene YDR231C) was 1.5 and the “The level of expressed mRNA in the presence of chemical substance/The level of expressed mRNA in the absence of chemical substance” value (yeast gene YDR298C, cells incubated two hours with the chemical substance) was 1.0. For the same molecule, the “The level of expressed mRNA in the presence of chemical substance/The level of expressed mRNA in the absence of chemical substance” value (yeast gene YDR377W, cells incubated two hours with the chemical substance) was 1.0, the “The level of expressed mRNA in the presence of chemical substance/The level of expressed mRNA in the absence of chemical substance” value (yeast gene YDR529C, cells incubated two hours with the chemical substance) was 0.5 and the “The level of expressed mRNA in the presence of chemical substance/The level of expressed mRNA in the absence of chemical substance” value (yeast gene YEL024W, cells incubated two hours with the chemical substance) was 0.7. The “The level of expressed mRNA in the presence of chemical substance/The level of expressed mRNA in the absence of chemical substance” value (yeast gene YEL039C, cells incubated two hours with the chemical substance) was 1.2, the “The level of expressed mRNA in the presence of chemical substance/The level of expressed mRNA in the absence of chemical substance” value (yeast gene YER178W) was 1.7 and the “The level of expressed mRNA in the presence of chemical substance/The level of expressed mRNA in the absence of chemical substance” value (yeast gene YFL057C) was 51.8. For the same molecule, the “The level of expressed mRNA in the presence of chemical substance/The level of expressed mRNA in the absence of chemical substance” value (yeast gene YFR053C) was 0.6, the “The level of expressed mRNA in the presence of chemical substance/The level of expressed mRNA in the absence of chemical substance” value (yeast gene YGL018C, cells incubated two hours with the chemical substance) was 0.5 and the “The level of expressed mRNA in the presence of chemical substance/The level of expressed mRNA in the absence of chemical substance” value (yeast gene YGL062W) was 1.6. For the same molecule, the “The level of expressed mRNA in the presence of chemical substance/The level of expressed mRNA in the absence of chemical substance” value (yeast gene YGL187C, cells incubated two hours with the chemical substance) was 0.6, the “The level of expressed mRNA in the presence of chemical substance/The level of expressed mRNA in the absence of chemical substance” value (yeast gene YGL191W, cells incubated two hours with the chemical substance) was 1.1 and the “The level of expressed mRNA in the presence of chemical substance/The level of expressed mRNA in the absence of chemical substance” value (yeast gene YGL205W, cells incubated two hours with the chemical substance) was 0.5. The “The level of expressed mRNA in the presence of chemical substance/The level of expressed mRNA in the absence of chemical substance” value (yeast gene YGL256W, cells incubated two hours with the chemical substance) was 0.4, the “The level of expressed mRNA in the presence of chemical substance/The level of expressed mRNA in the absence of chemical substance” value (yeast gene YGR008C) was 3.1 and the “The level of expressed mRNA in the presence of chemical substance/The level of expressed mRNA in the absence of chemical substance” value (yeast gene YGR043C) was 10.9. The “The level of expressed mRNA in the presence of chemical substance/The level of expressed mRNA in the absence of chemical substance” value (yeast gene YGR062C, cells incubated two hours with the chemical substance, 25° C., YPD medium) was 1.0, the “The level of expressed mRNA in the presence of chemical substance/The level of expressed mRNA in the absence of chemical substance” value (yeast gene YGR087C, cells incubated two hours with the chemical substance) was 0.2 and the “The level of expressed mRNA in the presence of chemical substance/The level of expressed mRNA in the absence of chemical substance” value (yeast gene YGR174C, cells incubated two hours with the chemical substance) was 1.8. For the same molecule, the “The level of expressed mRNA in the presence of chemical substance/The level of expressed mRNA in the absence of chemical substance” value (yeast gene YGR192C) was 0.9, the “The level of expressed mRNA in the presence of chemical substance/The level of expressed mRNA in the absence of chemical substance” value (yeast gene YGR244C) was 1.4 and the “The level of expressed mRNA in the presence of chemical substance/The level of expressed mRNA in the absence of chemical substance” value (yeast gene YGR254W) was 0.8. For the same molecule, the “The level of expressed mRNA in the presence of chemical substance/The level of expressed mRNA in the absence of chemical substance” value (yeast gene YGR256W) was 3.4, the “The level of expressed mRNA in the presence of chemical substance/The level of expressed mRNA in the absence of chemical substance” value (yeast gene YHL008C) was 1.6 and the “The level of expressed mRNA in the presence of chemical substance/The level of expressed mRNA in the absence of chemical substance” value (yeast gene YHR174W) was 1.0. The “The level of expressed mRNA in the presence of chemical substance/The level of expressed mRNA in the absence of chemical substance” value (yeast gene YHR179W) was 3.6, the “The level of expressed mRNA in the presence of chemical substance/The level of expressed mRNA in the absence of chemical substance” value (yeast gene YIL160C) was 3.2 and the “The level of expressed mRNA in the presence of chemical substance/The level of expressed mRNA in the absence of chemical substance” value (yeast gene YIR031C, cells incubated two hours with the chemical substance) was 2.6. For the same molecule, the “The level of expressed mRNA in the presence of chemical substance/The level of expressed mRNA in the absence of chemical substance” value (yeast gene YJL052W) was 1.6.
